Converted amounts (≈) assume the structure as drawn.
Legend:
[1] = test system: Human immunodeficiency virus 1; test: Antiviral activity against HIV1 3B infected in human H9 cells assessed as inhibition of viral p24 antigen levels after 4 days by ELISA; type: functional, organism-based
H9 = test: Cytotoxicity against human H9 cells; type: cell-based
[2] = Therapeutic index, ratio of IC50 for human H9 cells to EC50 of HIV1 3B; type: cell-based; conditions: for selectivity ratio: H9 cells, HIV-1 3B, read-out: Ratio IC50/EC50; for Ratio IC50/EC50: h9
[3] = Human immunodeficiency virus 1, 3B, H9, 96 h, read-out: EC50

Structure (SMILES): CC1(C)C=C2[C@H]3CC[C@@H]4[C@@]5(C)CC[C@H](OC(=O)CC(C)(C)C(=O)O)C(C)(C)[C@@H]5CC[C@@]4(C)[C@]3(C)CC[C@@]2(C(=O)O)CC1
- EC50 [1, 3]: 1 µg/mL (≈ 1.71 µM)
- IC50 (H9): 18.1 µg/mL (≈ 30.9 µM)
- selectivity ratio [2]: 18

Structure (SMILES): CCC(=O)c1ccc(O)c(OC)c1
- EC50 ([1]; h9): Not Active
- IC50 (H9): 18.8 µg/mL (≈ 104 µM)
- Ratio IC50/EC50 [2]: Not Active

Structure (SMILES): C=C(COC(C)=O)[C@H]1Cc2cc(C(C)=O)ccc2O1
- EC50 ([1]; h9): Not Active
- IC50 (H9): 2.07 µg/mL (≈ 7.95 µM)
- Ratio IC50/EC50 [2]: Not Active

Structure (SMILES): COc1ccc(/C=C/C=O)cc1OC [3,4-DIMETHOXY CINNAMALDEHYDE]
- EC50 [1, 3]: 2.19 µg/mL (≈ 11.4 µM)
- IC50 (H9): 18.9 µg/mL (≈ 98.3 µM)
- selectivity ratio [2]: 8.62

Structure (SMILES): C/C(=C/CC[C@@H](C)[C@H]1CC[C@@]2(C)C3=C(CC[C@]12C)[C@@]1(C)CCC(=O)C(C)(C)[C@@H]1CC3)C(=O)O [ANWUWEIZONIC ACID]
- EC50 ([1]; h9): Not Active
- IC50 (H9): 2.14 µg/mL (≈ 4.71 µM)
- Ratio IC50/EC50 [2]: Not Active

Structure (SMILES): C=C(C)[C@@H]1CC[C@]2(C(=O)O)CC[C@]3(C)[C@H](CC[C@@H]4[C@@]5(C)CCC(=O)C(C)(C)[C@@H]5CC[C@]43C)[C@@H]12 [BETUNOLIC ACID]
- EC50 [1, 3]: 0.22 µg/mL (≈ 0.484 µM)
- IC50 (H9): 1.8 µg/mL (≈ 3.96 µM)
- selectivity ratio [2]: 8

Structure (SMILES): CC1(C)CC[C@@]23CC[C@]4(C)[C@@](C=C[C@@H]5[C@@]6(C)CCC(=O)C(C)(C)[C@@H]6CC[C@]54C)(OC2=O)[C@@H]3C1 [MELLIFERONE]
- EC50 ([1]; h9): Not Active
- IC50 (H9): 0.205 µg/mL (≈ 0.453 µM)
- Ratio IC50/EC50 [2]: Not Active

Structure (SMILES): CC1(C)C=C2[C@H]3CC[C@@H]4[C@@]5(C)CC[C@H](O)C(C)(C)[C@@H]5CC[C@@]4(C)[C@]3(C)CC[C@@]2(C(=O)O)CC1 [MOROLIC ACID]
- EC50 [1, 3]: 2.7 µg/mL (≈ 5.91 µM)
- IC50 (H9): 22.1 µg/mL (≈ 48.4 µM)
- selectivity ratio [2]: 8.17

Structure (SMILES): CC1(C)C=C2[C@H]3CC[C@@H]4[C@@]5(C)CCC(=O)C(C)(C)[C@@H]5CC[C@@]4(C)[C@]3(C)CC[C@@]2(C(=O)O)CC1 [MORONIC ACID]
- EC50 [1, 3]: < 0.1 µg/mL
- IC50 (H9): 18.6 µg/mL (≈ 40.9 µM)
- selectivity ratio [2]: > 186

Structure (SMILES): COc1cc(C=O)ccc1O [VANILLIN]
- EC50 ([1]; h9): Not Active
- IC50 (H9): > 100 µg/mL
- Ratio IC50/EC50 [2]: Not Active

Structure (SMILES): Cc1cn([C@H]2C[C@H](N=[N+]=[N-])[C@@H](CO)O2)c(=O)[nH]c1=O [ZIDOVUDINE]
- EC50 [1, 3]: 0.00289 µg/mL (≈ 0.0108 µM)
